Results on two substances are retold here after patent US6395526B1, “DNA polymerase” (Takara Shuzo Co., Ltd., priority 1995, dated 2002).

“Also recorded” adds a separate entry of the source.

The test system of one series is M13-HT Primer. The experiment in a line: Primer extension reaction (autoradiogram, FIG. 6). The format is biochemical. The settings on record: for inhibition of primer extension by activated DNA as competitor substrate: activated DNA added in great excess. The method, then: The primer extension activity was further investigated extensively. The M13-HT Primer, previously labeled with [γ-^32P]-ATP (manufactured by Amersham) and T4 polynucleotide kinase (manufactured by Takara Shuzo Co., Ltd.) at the 5′-end, was used as a substrate. Ten microliters of a reaction mixture [20 mM Tris-HCl (pH 7.7), 15 mM MgCl2, 2 mM 2-mercaptoethanol, 270 μM each of dATP, dGTP, dCTP and dTTP] containing the above substrate in a final concentration of […] and various DNA polymerases in amounts providing 0.05 units of activity as assayed with the activated DNA as a substrate was reacted at 75° C. for 1, 2, 3, or 4 minutes. After termination of the reaction, 2 μl of a reaction stop solution (95% […], 20 mM EDTA, 0.05% bromophenol blue, 0.05% xylenecyanol) was added, subjected to thermal denaturation treatment at 95° C. for 3 minutes. Two microliters of the reaction mixture was then subjected to electrophoresis using polyacrylamide gel containing 8 M urea and subsequently subjected to a preparation of autoradiogram. Also, in order to examine the extension activity in the presence of the activated DNA as a competitor substrate, the activated DNA was added to the above reaction mixture to a final concentration of […], and subjected to a preparation of an autoradiogram by the same procedures as described above.
In the figure, Pol, Pfu, and Taq show the results for the DNA polymerase of the present invention, the Pfu DNA polymerase and the Taq DNA polymerase, respectively. In addition, 1, 2, 3, and 4 each indicates reaction time (min). In the figure, the representation “−” and “+” show the results obtained in the absence and in the presence, respectively, of the activated DNA. The lanes G, A, T, and C at the left end of the figure also show the results of electrophoresis of the reaction products obtained by a chain termination reaction by the dideoxy method using the same substrate as above, which were used to estimate the length of each extension product.

Series [1] concerns 32P-labeled DNA fragment from pUC119 vector. Put plainly: Associated exonuclease activity. The series is classed as biochemical. The settings on record: 75° C. Here is the method: The exonuclease activity of the DNA polymerase of the present invention was assessed as follows: As a substrate for 5′→3′ exonuclease activity detection, a DNA fragment labeled with ^32P at the 5′-end was prepared by a process comprising digesting a pUC119 vector (manufactured by Takara Shuzo Co., Ltd.) with SspI (manufactured by Takara Shuzo Co., Ltd.), separating the resulting 386 bp DNA fragment by agarose gel electrophoresis, purifying the fragment, and labeling with [γ-^32P]-ATP and polynucleotide kinase. Also, as a substrate for 3′→5′ exonuclease activity detection, a DNA fragment labeled with ^32P at 3′-end was prepared by a process comprising digesting a pUC119 vector with Sau3AI, separating the resulting 341 bp DNA fragment by agarose gel electrophoresis, purifying the fragment, and carrying out a fill-in reaction using […] (manufactured by Amersham) and the Klenow fragment (manufactured by Takara Shuzo Co., Ltd.). […] The radioactivity existing in the supernatant was assayed using a liquid scintillation counter, and the amount of degradation by the exonuclease activity was calculated.
In the figure, the abscissa indicates the reaction time, and the ordinate indicates the ratio of radioactivity released into the supernatant relative to the radioactivity contained in the entire reaction mixture. […]

The test system of series [2] is λ-DNA. The experiment in a line: PCR with λ-DNA as a template. The format is biochemical. The method, then: In order to compare the performance of the DNA polymerase of the present invention in PCR with that of the Taq DNA polymerase, PCR was carried out with λ-DNA as a template. The reaction mixture for the DNA polymerase of the present invention had the following composition: 10 mM Tris-HCl (pH 9.2), 3.5 mM MgCl2, 75 mM KCl, 400 μM each of dATP, dCTP, dGTP and dTTP, 0.01% bovine serum albumin (BSA), and 0.1% Triton X-100. The reaction solution for the Taq DNA polymerase had the following composition: 10 mM Tris-HCl (pH 8.3), 1.5 mM MgCl2, 50 mM KCl, and 400 μM each of dATP, dCTP, dGTP and dTTP. Fifty microliters of a reaction mixture containing 5.0 ng/50 μl λ-DNA (manufactured by Takara Shuzo Co., Ltd.), 10 pmol/50 μl each of primer λ1 and primer λ11, and 3.7 units/50 μl DNA polymerase was prepared. The base sequences of the primer λ1 and the primer λ11 are shown by SEQ ID NO:8 and SEQ ID NO:9 in Sequence Listing, respectively. After, a 30-cycle PCR was carried out with the above reaction mixture, wherein one cycle is defined at 98° C. for 10 seconds and at 68° C. for 10 seconds. Five microliters of the reaction mixture was subjected to agarose gel electrophoresis, and the amplified DNA fragment was confirmed by staining with ethidium bromide.
The experiment was then carried out by changing the primer to the primer λ1 and the primer λ10. The base sequence of the primer λ10 is shown by SEQ ID NO:10 in Sequence Listing. Twenty-five microliters of a reaction mixture having a similar composition to that shown above and containing 2.5 ng of λ-DNA, 10 pmol of the primer λ1 and the primer λ10, respectively, and 3.7 units of DNA polymerase was prepared. The reaction mixture was reacted in 5 cycles under the same reaction conditions as those described above, and 5 μl of the reaction mixture was subjected to agarose gel electrophoresis and stained with ethidium bromide.

The test system of series [3] is λ-DNA. The settings on record: reported, enzyme used alone; cited from earlier work.
Where [4] appears, read: primer λ1 and primer λ10, 5 cycles.

As to “DNA Polymerase of the Present Invention: complex of first (ORF3, SEQ ID NO:2) and second (ORF4, SEQ ID NO:4) DNA polymerase-constituting proteins from Pyrococcus furiosus”, the primer extension activity result with M13-HT Primer (M13-HT Primer, 75° C., 1-4 min, compared with Pfu and Taq DNA polymerases) is listed as “superior primer extension activity”. In addition, in the series on M13-HT Primer, the “inhibition of primer extension by activated DNA as competitor substrate” value was “unlikely to be inhibited; also recorded: inhibited at a low level”. Moreover, the “3′→5′ exonuclease activity” value in series [1] (3′-end labeled 341 bp fragment) was “potent; also recorded: of the same level as that of the Pfu DNA polymerase”. Also, the “5′→3′ exonuclease activity” value in series [1] (5′-end labeled 386 bp fragment) is on record as “no 5′→3′exonuclease activity was observed”. Moreover, the “length of DNA fragment amplified by PCR” value with λ-DNA [2] (setting [4]) is reported as “about 15 kbp”.
“Taq DNA Polymerase: Taq DNA polymerase derived from Thermus aquaticus (TaKaRa Taq, manufactured by Takara Shuzo Co., Ltd.) [reference compound]”: in the series with M13-HT Primer, the “inhibition of primer extension by activated DNA as competitor substrate” value is recorded as “markedly inhibited; also recorded: strongly inhibited”. In addition, the “length of DNA fragment amplified by PCR” value is given as “no specific amplification was observed” in the series on λ-DNA [2] (setting [4]); “not found” in the series on λ-DNA [2] (primer λ1 and primer λ11, 30 cycles, enzyme used alone). Moreover, in the series with λ-DNA [3], the “strand length of DNA amplifiable by PCR” value is “difficult to amplify a DNA fragment of not less than 10 kbp”.
